Source: PubChem BioAssay (NCI)
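GI50 marks 50% less growth. TGI: concentration producing complete growth inhibition.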

How the values were obtained:
Experiment in all cases: NCI anticancer screen, dose series, 384-well format
HOP-62 NSCLC = tested on: HOP-62 NSCLC
BT-549 breast = tested on: BT-549 breast
COLO 205 colon = tested on: COLO 205 colon
SK-OV-3 ovarian = tested on: SK-OV-3 ovarian
HCT-116 colon = tested on: HCT-116 colon
U251 glioblastoma = tested on: U251 glioblastoma
A549 NSCLC = tested on: A549 NSCLC
SK-MEL-28 melanoma = tested on: SK-MEL-28 melanoma
MDA-MB-435 melanoma = tested on: MDA-MB-435 melanoma
MCF7 breast = tested on: MCF7 breast
M14 melanoma = tested on: M14 melanoma
LOX IMVI melanoma = tested on: LOX IMVI melanoma
UACC-62 melanoma = tested on: UACC-62 melanoma
NCI-H226 lung = tested on: NCI-H226 lung
ACHN renal = tested on: ACHN renal
MALME-3M melanoma = tested on: MALME-3M melanoma
MDA-MB-231 breast = tested on: MDA-MB-231 breast
HS 578T breast = tested on: HS 578T breast
A498 renal = tested on: A498 renal
DU-145 prostate = tested on: DU-145 prostate
SF-539 CNS = tested on: SF-539 CNS
OVCAR-4 ovarian = tested on: OVCAR-4 ovarian
RPMI-8226 leukemia = tested on: RPMI-8226 leukemia
TK-10 renal = tested on: TK-10 renal
SK-MEL-5 melanoma = tested on: SK-MEL-5 melanoma
NCI-H23 lung = tested on: NCI-H23 lung
SNB-75 CNS = tested on: SNB-75 CNS
SR leukemia = tested on: SR leukemia
MOLT-4 leukemia = tested on: MOLT-4 leukemia
NCI/ADR-RES ovarian = tested on: NCI/ADR-RES ovarian
SN12C renal = tested on: SN12C renal
HCT-15 colon = tested on: HCT-15 colon
HL-60(TB) leukemia = tested on: HL-60(TB) leukemia
UACC-257 melanoma = tested on: UACC-257 melanoma
IGROV1 ovarian = tested on: IGROV1 ovarian
OVCAR-5 ovarian = tested on: OVCAR-5 ovarian
MDA-MB-468 breast = tested on: MDA-MB-468 breast
NCI-H522 lung = tested on: NCI-H522 lung
OVCAR-3 ovarian = tested on: OVCAR-3 ovarian
EKVX NSCLC = tested on: EKVX NSCLC
HCC-2998 colon = tested on: HCC-2998 colon
SF-295 CNS = tested on: SF-295 CNS
CAKI-1 renal = tested on: CAKI-1 renal
NCI-H322M lung = tested on: NCI-H322M lung
SF-268 CNS = tested on: SF-268 CNS
PC-3 prostate = tested on: PC-3 prostate
NCI-H460 NSCLC = tested on: NCI-H460 NSCLC
KM12 colon = tested on: KM12 colon

CC(C)(C)c1cnc(CSc2cnc(NC(=O)C3CCNCC3)s2)o1
GI50 (HOP-62 NSCLC): 66 nM
TGI (HOP-62 NSCLC): 330 nM
GI50 (BT-549 breast): 114 nM
TGI (BT-549 breast): 277 nM
GI50 (COLO 205 colon): 25 nM
TGI (COLO 205 colon): 62.8 nM
GI50 (SK-OV-3 ovarian): 192 nM
TGI (SK-OV-3 ovarian): > 100000 nM
GI50 (HCT-116 colon): 32.3 nM
TGI (HCT-116 colon): > 100000 nM
GI50 (U251 glioblastoma): 107 nM
TGI (U251 glioblastoma): 547 nM
GI50 (A549 NSCLC): 101 nM
TGI (A549 NSCLC): > 100000 nM
GI50 (SK-MEL-28 melanoma): 120 nM
TGI (SK-MEL-28 melanoma): 285 nM
GI50 (MDA-MB-435 melanoma): 113 nM
TGI (MDA-MB-435 melanoma): 322 nM
GI50 (MCF7 breast): 29.8 nM
TGI (MCF7 breast): 16900 nM
GI50 (M14 melanoma): 166 nM
TGI (M14 melanoma): 425 nM
GI50 (LOX IMVI melanoma): 24.1 nM
TGI (LOX IMVI melanoma): 59.9 nM
GI50 (UACC-62 melanoma): 47.3 nM
TGI (UACC-62 melanoma): 191 nM
GI50 (NCI-H226 lung): 188 nM
TGI (NCI-H226 lung): 680 nM
GI50 (ACHN renal): 950 nM
TGI (ACHN renal): 34100 nM
GI50 (MALME-3M melanoma): 123 nM
TGI (MALME-3M melanoma): 264 nM
GI50 (MDA-MB-231 breast): 62.4 nM
TGI (MDA-MB-231 breast): > 100000 nM
GI50 (HS 578T breast): 136 nM
TGI (HS 578T breast): 431 nM
GI50 (A498 renal): 240 nM
TGI (A498 renal): 627 nM
GI50 (DU-145 prostate): 42 nM
TGI (DU-145 prostate): 299 nM
GI50 (SF-539 CNS): 35.4 nM
TGI (SF-539 CNS): 134 nM
GI50 (OVCAR-4 ovarian): 63.7 nM
TGI (OVCAR-4 ovarian): 368 nM
GI50 (RPMI-8226 leukemia): 27.3 nM
TGI (RPMI-8226 leukemia): 70.4 nM
GI50 (TK-10 renal): 232 nM
TGI (TK-10 renal): 799 nM
GI50 (SK-MEL-5 melanoma): 109 nM
TGI (SK-MEL-5 melanoma): 249 nM
GI50 (NCI-H23 lung): 78.3 nM
TGI (NCI-H23 lung): 212 nM
GI50 (SNB-75 CNS): 124 nM
TGI (SNB-75 CNS): 278 nM
GI50 (SR leukemia): 12.1 nM
TGI (SR leukemia): 24.6 nM
GI50 (MOLT-4 leukemia): 37.4 nM
TGI (MOLT-4 leukemia): 104 nM
GI50 (NCI/ADR-RES ovarian): 26300 nM
TGI (NCI/ADR-RES ovarian): > 100000 nM
GI50 (SN12C renal): 38.4 nM
TGI (SN12C renal): 186 nM
GI50 (HCT-15 colon): 2450 nM
TGI (HCT-15 colon): > 100000 nM
GI50 (HL-60(TB) leukemia): 14.3 nM
TGI (HL-60(TB) leukemia): 27.5 nM
GI50 (UACC-257 melanoma): 166 nM
TGI (UACC-257 melanoma): 350 nM
GI50 (IGROV1 ovarian): 53.1 nM
TGI (IGROV1 ovarian): 566 nM
GI50 (OVCAR-5 ovarian): 25.2 nM
TGI (OVCAR-5 ovarian): 59.4 nM
GI50 (MDA-MB-468 breast): 50.8 nM
TGI (MDA-MB-468 breast): 176 nM
GI50 (NCI-H522 lung): 147 nM
TGI (NCI-H522 lung): 306 nM
GI50 (OVCAR-3 ovarian): 46.4 nM
TGI (OVCAR-3 ovarian): 221 nM
GI50 (EKVX NSCLC): 204 nM
TGI (EKVX NSCLC): 1070 nM
GI50 (HCC-2998 colon): 51.8 nM
TGI (HCC-2998 colon): 208 nM
GI50 (SF-295 CNS): 373 nM
TGI (SF-295 CNS): 27100 nM
GI50 (CAKI-1 renal): 394 nM
TGI (CAKI-1 renal): > 100000 nM
GI50 (NCI-H322M lung): 38.1 nM
TGI (NCI-H322M lung): 159 nM
GI50 (SF-268 CNS): 41 nM
TGI (SF-268 CNS): 264 nM
GI50 (PC-3 prostate): 70.9 nM
TGI (PC-3 prostate): 397 nM
GI50 (NCI-H460 NSCLC): 68.6 nM
TGI (NCI-H460 NSCLC): 256 nM
GI50 (KM12 colon): 35 nM
TGI (KM12 colon): 13700 nM
